Data: article PMC6801405, “Discovery of 3-Arylquinoxaline Derivatives as Potential Anti-Dengue Virus Agents” (International Journal of Molecular Sciences, 2019)
Read-outs that look alike come from different tables or passages of the source.

What was measured:
DENV2 = test: microbe, parasite or virus in culture; type: cell-based, dengue virus; conditions: for SI (selectivity index, CC50/EC50): CC50 Huh-7 / EC50 DENV; for inhibition at 1 µM / inhibition at 10 µM / EC50: Dengue virus; for inhibition at 1 µM / inhibition at 10 µM: DENV2, 72 h; for inhibition at 1 µM / inhibition at 10 µM / DENV2 % Inhibition at 10 μM: Huh-7-DV-Fluc cells, three days; for inhibition at 10 µM / anti-DENV activity in words / DENV2 % Inhibition at 10 μM: 10 μM; for anti-DENV activity in words: >32% inhibition of DENV-2 at 10 μM considered as active
Description: Anti-DENV activities were determined by firefly luciferase activity.
Huh-7-DV-Fluc cells were seeded in 24-well plates at a density of 2 × 10^4 cells per well, and treated with the 3-arylquinoxaline compounds at two concentrations (1 and 10 μM) or 0.1% DMSO as control. After three days of incubation, the luciferase activity assay was performed using the Bright-Glo Luciferase assay system (Promega, Madison, WI, USA) according to the manufacturer’s instructions.

[1] = Cytotoxicity assay (XTT method); type: cell-based, Human; conditions: human, mean ± SD; for viability at 72 h, 20 µM / viability at 72 h, 200 µM: Huh-7 cells, XTT; for viability at 72 h, 20 µM: read-out: Huh-7 Cell % viability at 20 μM; for viability at 72 h, 200 µM: read-out: Huh-7 Cell % viability at 200 μM; for CC50 at 72 h: uninfected Huh-7 cells, read-out: CC50 (concentration causing a 50% growth inhibition of uninfected Huh-7 cells)
Description: For cytotoxicity tests, run in parallel with antiviral assays, plates at an initial density of 5 × 10^3 cells/well were treated with or without serial dilutions of test compounds. Cell viability was determined after 72 h at 37 °C in a humidified CO2 (5%) atmosphere by the (2,3-bis[2-methyloxy-4-nitro-5-sulfophenyl]-2H-tetrazolium-5-carboxanilide) (XTT) method.

[2] = DENV2, DENV replication, mean ± SD, read-out: EC50 (concentration resulting in a 50% inhibition in virus production)

Compound | melting point | SI (selectivity index, CC50/EC50) (DENV2) | inhibition at 1 µM (DENV2; mean ± SD) | inhibition at 10 µM (DENV2; mean ± SD) | EC50 (DENV2; [2]) | viability at 72 h, 20 µM [1] | viability at 72 h, 200 µM [1] | CC50 at 72 h [1] | anti-DENV activity in words (DENV2) | DENV2 % Inhibition at 10 μM (DENV2; mean ± SD) | EC50 (DENV2; DENV2, read-out: EC50 (concentration resulting in a 50% inhibition in virus production))
Oc1ccc(Cc2nc3ccccc3nc2-c2ccc(O)cc2)cc1 | 184.8 to 185.9 °C | – | – | – | – | – | – | – | – | – | –
COc1ccc(-c2cc3ccccc3nc2C(O)c2ccccc2)cc1 (stereo not shown) [Compound 3, 2-(hydroxyphenylmethyl)-3-(4-methoxyphenyl)quinoline, reference compound] | – | 11.07 | 12.4 ± 2.67% | 50.1 ± 3.47% | 12.6 ± 2.16 µM | 90.3 ± 2.62% | 21.9 ± 3.55% | 139 ± 2.32 µM | – | – | –
O=C(c1ccc(O)cc1)c1nc2ccccc2cc1-c1ccc(O)cc1 [Compound 4, 2-(4-hydroxybenzoyl)-3-(4-hydroxyphenyl)quinoline, reference compound] | – | 12.44 | 11.2 ± 2.31% | 41.2 ± 2.88% | 13.2 ± 1.23 µM | 96.6 ± 8.78% | 41.4 ± 5.71% | 164 ± 2.32 µM | – | – | –
OC(c1ccccc1)c1nc2ccccc2nc1-c1ccccc1 (stereo not shown) [Compound 15a, Phenyl(3-phenylquinoxalin-2-yl)methanol] | 146 to 147 °C | – | 2.13 ± 1.12% | 5.31 ± 1.73% | – | 105 ± 5.66% | 59.9 ± 8.33% | – | inactive | – | –
COc1ccc(C(O)c2nc3ccccc3nc2-c2ccccc2)cc1 (stereo not shown) [Compound 15b, (4-Methoxyphenyl)(3-phenylquinoxalin-2-yl)methanol] | 166 to 168.6 °C | – | 24.3 ± 2.51% | 48% | – | 103 ± 1.79% | 61.4 ± 2.67% | – | moderately active | 48.67 ± 4.71% | –
OC(c1ccccc1)c1nc2cc(Cl)c(Cl)cc2nc1-c1ccccc1 (stereo not shown) [Compound 16a, (6,7-Dichloro-3-phenylquinoxalin-2-yl)(phenyl)methanol] | 136.4 to 136.9 °C | – | 1.97 ± 0.72% | 6.42 ± 2.97% | – | 108 ± 8.91% | 20.6 ± 5.37% | – | – | – | –
COc1ccc(C(O)c2nc3cc(Cl)c(Cl)cc3nc2-c2ccccc2)cc1 (stereo not shown) [Compound 16b, (6,7-Dichloro-3-phenylquinoxalin-2-yl)(4-methoxyphenyl)methanol] | 157.2 to 157.6 °C | – | 2.41 ± 1.48% | 9% | – | 104 ± 4.18% | 73 ± 9.05% | – | inactive | 9.46 ± 2.88% | –
OC(c1ccccc1)c1nc2ccccc2nc1-c1ccc(F)cc1 (stereo not shown) [Compound 17a, [3-(4-Fluorophenyl)quinoxalin-2-yl](phenyl)methanol] | 157.4 to 158 °C | – | 2.58 ± 0.85% | 4.78 ± 1.93% | – | 96.3 ± 3.52% | 73.3 ± 6.57% | – | – | – | –
COc1ccc(C(O)c2nc3ccccc3nc2-c2ccc(F)cc2)cc1 (stereo not shown) [Compound 17b, [3-(4-Fluorophenyl)quinoxalin-2-yl](4-methoxyphenyl)methanol] | 173 to 174.7 °C | – | 19.2 ± 3.5% | 22% | – | 102 ± 1.98% | 101 ± 1.27% | – | – | 22.89 ± 4.54% | –
OC(c1ccccc1)c1nc2cc(Cl)c(Cl)cc2nc1-c1ccc(F)cc1 (stereo not shown) [Compound 18a, [6,7-Dichloro-3-(4-fluorophenyl)quinoxalin-2-yl](phenyl)methanol] | 150 to 150.2 °C | – | 3.41 ± 1.11% | 6.74 ± 1.57% | – | 102 ± 3.96% | 21.5 ± 1.6% | – | – | – | –
COc1ccc(-c2nc3ccccc3nc2C(O)c2ccc(OC)cc2)cc1 (stereo not shown) [Compound 19b, (4-Methoxyphenyl)[3-(4-methoxyphenyl)quinoxalin-2-yl]methanol] | 132.4 to 136 °C | – | 35.5 ± 4.82% | 47.7 ± 5.41% | – | 96.4 ± 1.24% | 21.3 ± 1.55% | – | – | – | –
COc1ccc(-c2nc3cc(Cl)c(Cl)cc3nc2C(O)c2ccccc2)cc1 (stereo not shown) [Compound 20a, [6,7-Dichloro-3-(4-methoxyphenyl)quinoxalin-2-yl](phenyl)methanol] | 156.8 to 157.1 °C | >35.21 | 16.3 ± 3.42% | > 50% | – | 99.4 ± 3.31% | 27.1 ± 1.24% | > 200 µM | – | 58.71 ± 2.86% | 5.68 ± 0.81 µM
COc1ccc(-c2nc3cc(Cl)c(Cl)cc3nc2C(O)c2ccc(OC)cc2)cc1 (stereo not shown) [Compound 20b, [6,7-Dichloro-3-(4-methoxyphenyl)quinoxalin-2-yl](4-methoxyphenyl)methanol] | 144.1 to 144.5 °C | – | 2.75 ± 1.69% | 4.39 ± 1.52% | – | 95.5 ± 3.96% | 34.2 ± 4.97% | – | inactive | – | –
O=C(c1ccccc1)c1nc2ccccc2nc1-c1ccccc1 [Compound 21a, Phenyl(3-phenylquinoxalin-2-yl)methanone] | – | – | 2.76 ± 1.55% | 7.98 ± 2.14% | – | 107 ± 2.3% | 79.5 ± 7.07% | – | inactive | – | –
O=C(c1ccccc1)c1nc2cc(Cl)c(Cl)cc2nc1-c1ccccc1 [Compound 22a, (6,7-Dichloro-3-phenylquinoxalin-2-yl)(phenyl)methanone] | 154.3 to 156.8 °C | – | 12.7 ± 3.91% | 19.7 ± 4.17% | – | 109 ± 1.36% | 103 ± 2.67% | – | – | – | –
COc1ccc(C(=O)c2nc3cc(Cl)c(Cl)cc3nc2-c2ccccc2)cc1 [Compound 22b, (6,7-Dichloro-3-phenylquinoxalin-2-yl)(4-methoxyphenyl)methanone] | 171.9 to 172.3 °C | – | 5.19 ± 2.78% | 24.7 ± 1.89% | – | 103 ± 8.3% | 92 ± 3.08% | – | – | – | –
O=C(c1ccccc1)c1nc2ccccc2nc1-c1ccc(F)cc1 [Compound 23a, [3-(4-Fluorophenyl)quinoxalin-2-yl](phenyl)methanone] | 94.1 to 96.6 °C | – | 34.2 ± 5.12% | 40.8 ± 2.58% | – | 98.6 ± 5.68% | 87.6 ± 5.75% | – | – | – | –
COc1ccc(C(=O)c2nc3ccccc3nc2-c2ccc(F)cc2)cc1 [Compound 23b, [3-(4-Fluorophenyl)quinoxalin-2-yl](4-methoxyphenyl)methanone] | 147.6 to 147.9 °C | – | 16.4 ± 3.11% | 33.6 ± 4.21% | – | 104 ± 1.85% | 103.3 ± 1.03% | – | – | – | –
O=C(c1ccccc1)c1nc2cc(Cl)c(Cl)cc2nc1-c1ccc(F)cc1 [Compound 24a, (6,7-Dichloro-3-(4-fluorophenyl)quinoxalin-2-yl)(phenyl)methanone] | 184.3 to 186.4 °C | – | 2.54 ± 1.21% | 23.5 ± 3.71% | – | 106 ± 2.12% | 91.9 ± 2.83% | – | – | – | –
COc1ccc(-c2nc3ccccc3nc2C(=O)c2ccccc2)cc1 [Compound 25a, [3-(4-Methoxyphenyl)quinoxalin-2-yl](phenyl)methanone] | 93.9 to 98.2 °C | – | 40.4 ± 2.22% | 47.5 ± 3.51% | – | 101 ± 2.39% | 100 ± 4.59% | – | – | – | –
COc1ccc(C(=O)c2nc3ccccc3nc2-c2ccc(OC)cc2)cc1 [Compound 25b, (4-Methoxyphenyl)[3-(4-methoxyphenyl)quinoxalin-2-yl]methanone] | 144.5 to 146.2 °C | – | 41.5 ± 3.25% | 49.7 ± 4.38% | – | 107 ± 3.03% | 99.4 ± 2.14% | – | – | – | –
COc1ccc(-c2nc3cc(Cl)c(Cl)cc3nc2C(=O)c2ccccc2)cc1 [Compound 26a, [6,7-Dichloro-3-(4-methoxyphenyl)quinoxalin-2-yl](phenyl)methanone] | 173.9 to 174.3 °C | – | 1.95 ± 0.82% | 14.5 ± 2.55% | – | 99.4 ± 6.5% | 35.3 ± 4.95% | – | – | – | –
COc1ccc(C(=O)c2nc3cc(Cl)c(Cl)cc3nc2-c2ccc(OC)cc2)cc1 [Compound 26b, [6,7-Dichloro-3-(4-methoxyphenyl)quinoxalin-2-yl](4-methoxyphenyl)methanone] | 178.8 to 179 °C | – | 1.17 ± 0.41% | 19.3 ± 3.85% | – | 104 ± 4.22% | 99.1 ± 2.4% | – | inactive | – | –
O=C(c1ccc(O)cc1)c1nc2ccccc2nc1-c1ccccc1 [Compound 27, (4-Hydroxyphenyl)(3-phenylquinoxalin-2-yl)methanone] | 196.5 to 199.3 °C | – | 44.9 ± 3.68% | 48.7 ± 3.48% | – | 102 ± 2.84% | 18.4 ± 2.33% | – | – | – | –
O=C(c1ccc(O)cc1)c1nc2ccccc2nc1-c1ccc(O)cc1 [Compound 29, (4-Hydroxyphenyl)(3-(4-hydroxyphenyl)quinoxalin-2-yl)methanone] | – | – | 2.36 ± 1.11% | 4.25 ± 1.39% | – | 104 ± 2.91% | 51.9 ± 1.62% | – | – | – | –
